Results from PMC6304418, “A Novel Compound Targeting Protease Receptor 1 Activators for the Treatment of Glioblastoma” (Frontiers in Neurology, 2018).
Where a SMILES comes first, the peptide text is derived from it. The star is where a group is joined. Tos = Cc1ccc(S(=O)(=O)*)cc1; CH2Cl = ClC*

Columns and labels:
glioma cells (CNS-1) = experiment: Wound healing (wound-closure) assay; assay type: cell-based, rat; conditions: SIXAC 1 μM, 4 h, FCS-free medium; control 10.14 ± 0.67%; p = 0.02
Description: The effect of SIXAC on the coordinated movement of the glioma cells was evaluated using a wound healing assay. The cells were seeded in 24-well plates at a density of 5 × 10^4cells/well. Cells were cultures in FCS-free medium for 24 h. A wound was established by scraping using 10 μl pipette tip. Cells were washed twice with warm PBS and fresh FCS-free medium containing 1 μM SIXAC was added. Image acquisition of wound gap closure (%) was carried out following 4 h of incubation using a Nikon Eclipse microscope. Images were analyzed using Fiji software ([37]).

[1] = system: CNS-1 tumors in rat brains; experiment: Histopathology of CNS-1 GBM rat brains (H&E, Ki67); assay type: in vivo
Description: Rats were allocated to three groups. 1. Control group (n = 15) treated with alzet-pumps contain saline. 2. Moderate dose treated group (n = 16) treated with alzet-pump containing SIXAC (2μg/kg/day). 3. High dose treated group (n = 14) treated with alzet-pumps contain SIXAC (20μg/kg/day). Survival was registered daily and the brains were dissected immediately after death determination and were placed in 4% PFA and kept at 4°C. Upon MRI scanning the brains were moved to PBS containing tubes, scanning was performed and ROI were quantified.
Formalin-fixed, paraffin-embedded brains were serially sectioned into 4 μm sections and stained with Hematoxylin and Eosin (H&E). Tumor localization and detailed evaluation was conducted by a senior neuropathologist (NS). Mitosis rate was assessed manually by 2 observers who analyzed 10 fields from each examined brain. Serial 4 μm sections were used for immune-histochemical staining using a commercially available monoclonal rabbit anti-Ki67 antibody (clone SP6,# RM-9106-S, Thermo Scientific, 1:300) according to standard procedures and fully automated protocol. A positive control was added on the right side of the slides for immune-histochemistry. The slides were automatically scanned via Aperio Versa 200 System (leica) using X20 and X40 equivalent objectives. Digital images were captured with Leica DM6000B microscope by AperioImageScope software. The Ki67 index was defined as positive stained nuclei (DAB positive)/all stained nuclei. Ten fields from each tested brain were used for analysis of Ki67 index. The indices were automatically calculated by means of ImmunoRatio application (Version 1.0c) ([43]).

U87 glioma cells = experiment: U87 glioma cell proliferation (XTT); assay type: cell-based, human; conditions: 72 h
Description: CNS-1, C6, and U87 rat and human glioma cells were grown in Dulbecco's modified Eagle's medium (DMEM; Bet Haemek, Biological Industries, Israel) supplemented with 10% fetal bovine serum (Bet Haemek, Biological Industries, Israel) and 1% penicillin and streptomycin in a 5% CO2-humidified atmosphere.
Cell proliferation was evaluated using a 2.3-Bis-(2-methoxy-4-nitro-5-sulfophenyl)-2H-tetrazolium-5-carboxyanilide salt (XTT)-based cell proliferation assay kit (Bet Haemek, Biological Industries, Israel). U87 cells were seeded in 96-well plates (5 × 10^3 cells/well) and incubated for 24 h. The medium was then removed, the tested molecules (10^−13-10^−4 M final concentration) were added in FCS-free medium and introduced to the cells for 72 h. After choosing SIXAC as the leading molecule, it was tested in a similar way in CNS-1 cells (SIXAC 1 μM final concentration). XTT solution (50 μl) was added to each well and incubated for 3 h at 37°C. The optical density (OD) of each well was recorded at 450 and 630 nm in a microplate reader (Infinite M200, Tecan, Durham, NC, USA). Cell viability was expressed as the percentage (ODtest–ODblank)/(ODcontrol–ODblank), where ODtest is the optical density of cells exposed to SIXAC treatment, ODcontrol is the optical density of the control sample, and ODblank is the optical density of wells without glioma cells.

Structure (SMILES): Cc1ccc(S(=O)(=O)N[C@@H](C)C(=O)N[C@H](C(=O)N[C@@H](CC(C)C)C(=O)N[C@@H](CC(=O)O)C(=O)N2CCC[C@H]2C(=O)N[C@@H](CCCNC(=N)N)C(=O)CCl)[C@@H](C)O)cc1 [SIXAC] (Tos-ATLDPR-CH2Cl)
- wound-closure percentage (glioma cells (CNS-1)): 7.27 ± 0.68%
- mitosis rate (number of mitosis/field, H&E) ([1]; SIXAC treated rats, 10 fields per brain, mean ± SEM, control 7.75 ± 1.45, p = 0.03): 4.9 ± 0.2 mitosis/field
- Ki67 index ([1]; SIXAC treated rats, positive/all stained nuclei, ImmunoRatio, ten fields per brain, mean ± SEM, control 21.55 ± 0.11, p < 0.001): 12.74 ± 0.23
- H&E finding in a long survivor rat ([1]; high dose 20μg/kg/day long survivor, sacrificed at day 40): large cystic area containing residual tissue with foamy macrophages
- U87 proliferation rate ("inhibit proliferation at a rate of") (U87 glioma cells; 10^−5M, FCS-free medium, mean ± SEM, 3AACK vs. 6AACK p < 0.035): 0.2 ± 0.34
- U87 proliferation inhibition, ranking among the molecules (U87 glioma cells; 10^−13-10^−4 M, Figure 1D): found to inhibit the U87 proliferation rate the most
